Reference: patent publication US20210145768A1, “MODULATING IMMUNE RESPONSE VIA TARGETING OF OLFACTORY RECEPTOR ACTIVITY” (La Jolla Institute for Allergy and Immunology, priority 2018, published 2021)
Several values for one entry are separate records, joined by “and”; a condition that tells them apart may be missing. Equal values may be shown once.

Columns and labels:
[1] = Plasma lipids, body weight and hematological parameters in treated Apoe−/− mice; type: in vivo, mouse
Experimental: (§1) Male Apoe^−/− mice (9 to 10 wks old) were fed WD for 4 weeks. Oct or Cit were diluted in sterile phosphate buffered saline (PBS) (Gibco) at a final concentration of 10 μg/g. 100 μl were injected intraperitoneally (i.p.) every 3 days for 4 weeks (12 injections total) while maintaining WD administration. PBS+0.1% DMSO (Sigma Aldrich) was injected as a vehicle control following the same protocol. Mice were sacrificed, perfused with PBS implemented with 2% heparin (Fresenius Kabi USA, LLC) and aortas removed for en face atherosclerotic lesion assessment. Mouse whole blood (heart puncture) was collected in EDTA tubes. Leukocyte blood counts were determined with HemaVet 950 (Drew Scientific). Plasma was collected from blood centrifuged at 3000 g for 15 min at 4° C. and stored at −80° C. until further analysis. Lipid analysis of collected plasma was performed by IDEXX BioResearch.

[2] = biological target: T1, Olfr2 (Mus musculus, UniProt Q9QWU6); assay: Calcium signalling (Fluo-4, flow cytometry) in vascular macrophages; type: cell-based; set-up: Olfr2 expression was confirmed at the protein level on F4/80^+ vascular macrophages; from tissue; host or cells: explanted whole aortas, digested aortic cell suspensions (F4/80+ vascular macrophages) and blood monocytes of Apoe-/- C57BL/6J mice; living Apoe-/- mice for the in vivo study
T1 sequence (Q9QWU6 1-327): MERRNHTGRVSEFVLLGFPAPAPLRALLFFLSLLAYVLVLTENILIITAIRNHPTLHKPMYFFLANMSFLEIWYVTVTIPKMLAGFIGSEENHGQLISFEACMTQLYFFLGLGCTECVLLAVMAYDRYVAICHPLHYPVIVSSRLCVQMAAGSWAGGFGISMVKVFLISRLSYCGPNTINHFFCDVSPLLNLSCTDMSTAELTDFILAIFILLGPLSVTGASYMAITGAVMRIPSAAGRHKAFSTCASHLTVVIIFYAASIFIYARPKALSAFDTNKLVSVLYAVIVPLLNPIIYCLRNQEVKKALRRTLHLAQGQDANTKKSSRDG
Experimental: The role of Olfr2 ligation on inflammatory responses was investigated by measuring intracellular free calcium (Can in vascular macrophages. Briefly, mouse aortic cell suspensions were loaded with 2 μM Fluo-4 at 37° C. for 30 min, then washed and incubated with cell surface markers at RT for 20 min CD45^+, live, dump channel^− (TCRb^−, CD19^−), F4/80^+ macrophages were analyzed by flow cytometry. Olfr2 agonist Oct (10 μM), and antagonist Cit (100 μM) alone or combined (Oct+Cit) were added 60 seconds (s) after the acquisition started. DMSO (0.1%) was injected as a control (Ctrl).
Aortic cell suspensions obtained as previously described^18 were pre-incubated with extracellular markers for vascular macrophages including CD45-PerCP, TCRβ/CD4-APCCy7 (Dump Channel), F4/80-BV421 and LD Yellow fixable dye (Invitrogen) for 20 min in Fc block solution at RT in the dark. Aortic cell suspensions were than washed twice and loaded with 2 μM of Fluo4 dye (Thermo Fischer Scientific) for 30 min at 37° C.
Subsequently, cells were washed and resuspended in 37° C. warm HBSS buffer containing Ca^2+ and Mg^2+ and acquired with the LSRII flow cytometer. After 60 seconds, Oct (10 μM), Cit (100 μM) or vehicle (DMSO 0.1%) was added and acquisition continued for additional 140 seconds. Data was acquired with FACSDiva software (BD Biosciences) and analyzed with FlowJo software (Treestar Inc). Mean fluorescence intensity of Fluo4 was integrated over 25 seconds form the start of the acquisition (tot. 8 intervals).

[3] = biological target: T1, Olfr2; assay: En face atherosclerosis quantification in Apoe−/− mice fed western diet; type: in vivo; set-up: Olfr2 expression was confirmed at the protein level on F4/80^+ vascular macrophages; from tissue; host or cells: explanted whole aortas, digested aortic cell suspensions (F4/80+ vascular macrophages) and blood monocytes of Apoe-/- C57BL/6J mice; living Apoe-/- mice for the in vivo study; settings: for atherosclerosis in mice: summary of in vivo injection experiments
Experimental: The effect of citral on atherosclerosis in Apoe−/− mice fed a high fat western diet, a widely used model of atherosclerosis, was investigated. Briefly, ApoE^−/− Mice (10 weeks old) were fed WD for 4 weeks before the inhibitor treatment, citral, was started. Citral at 10 mg/kg was diluted in 100 uL of PBS and injected I.P. every 3 days for 4 weeks for a total of 12 injections. During this time, mice continue to eat WD for a total of 8 weeks. […] Thus, blocking Olfr2 is anti-atherosclerotic, showing that Olfr2 contributes to atherosclerosis.
To test a possible impact of Olfr2 on atherosclerosis in vivo, male Apoe^−/− mice were fed WD for 8 weeks and injected octanal (10 μg/g) intraperitoneally for the last 4 weeks every three days for a total of 12 injections. […] Octanal had no effect on total cholesterol, LDL cholesterol, HDL cholesterol or triglycerides (FIG. 11A). Similarly, in a loss-of-function experiment, male Apoe^−/− mice were treated with citral (10 μg/g, 12 injections over 4 weeks), which reduced the size of atherosclerotic lesions by ˜40% (FIGS. 10F and G). Citral treatment like octanal had no effect on other parameters (FIG. 11A).
as §1, with “analysis.” for “analysis. Lipid analysis of collected plasma was performed by IDEXX BioResearch.”
After explant, each aorta was pinned out after 4% paraformaldehyde incubation at room temperature for at least 2 hours Staining for atherosclerotic plaque was performed by incubating samples in Sudan IV. Microphotographs of the luminal (endothelial) aspect were of the aortic surface were analyzed using Photoshop CS (Adobe Systems). Atherosclerotic lesion size measurement was performed by blinded investigators using Image-Pro Premier software (Media Cybernetics).

| Compound | other parameters (body weight, hematological, lipids) ([1]; citral-treated Apoe−/− mice) | octanal-induced calcium flux in vascular macrophages ([2]; citral 100 μM + octanal 10 μM) | reduction of atherosclerotic lesion size ([3]; Apoe−/− mice on WD 8 weeks, citral 10 μg/g i.p. every 3 days, 12 injections over last 4 weeks) | atherosclerotic lesions, % of the aortic area ([3]; Apoe−/− mice on WD, citral 10 mg/kg i.p., 12 injections, untreated ~8%, P<0.02) [%] | atherosclerosis in mice [3] | total cholesterol, LDL cholesterol, HDL cholesterol or triglycerides ([1]; octanal-treated Apoe−/− mice) | calcium signal in other immune cells (TCRb+, CD19+) ([2]; octanal 10 μM, citral 100 μM alone or combined) | intracellular free calcium (Fluo-4 MFI) in F4/80+ vascular macrophages ([2]; octanal 10 μM, at 100 and 125 s after injection) | lesion size, en face staining of aortic arches ([3]; Apoe−/− mice on WD 8 weeks, octanal 10 μg/g i.p., 12 injections over last 4 weeks) |
| --- | --- | --- | --- | --- | --- | --- | --- | --- | --- |
| CC(C)=CCCC(C)=CC=O [citral] | no effect | completely blocked | ~50% and ~40% | ~5 | protected mice from atherosclerosis |  |  |  |  |
| CCCCCCCC=O [octanal] |  |  |  |  | exacerbated atherosclerosis | no effect | No calcium signal | highly significant increase | more than doubled |
